According to patent publication US20150241410A1, “INHIBITORS OF CENTRAL NERVOUS SYSTEM VASOACTIVE INHIBITORY PEPTIDE RECEPTOR 2” (The Trustees Of Columbia University In The City Of New York, priority 2012, published 2015):

What was measured:
VIPR2 = target: T1, VIPR2 (Homo sapiens, UniProt P41587); experiment: BRET-based VIPR2 activation assay (CAMYEL cAMP sensor, CHO cells, VIP background); type: cell-based; conditions: compared with Compound 1 or other compounds (FIG. 1C, FIG. 5B)
T1 construct: expressed in transfected cells
T1 sequence (P41587 24-438): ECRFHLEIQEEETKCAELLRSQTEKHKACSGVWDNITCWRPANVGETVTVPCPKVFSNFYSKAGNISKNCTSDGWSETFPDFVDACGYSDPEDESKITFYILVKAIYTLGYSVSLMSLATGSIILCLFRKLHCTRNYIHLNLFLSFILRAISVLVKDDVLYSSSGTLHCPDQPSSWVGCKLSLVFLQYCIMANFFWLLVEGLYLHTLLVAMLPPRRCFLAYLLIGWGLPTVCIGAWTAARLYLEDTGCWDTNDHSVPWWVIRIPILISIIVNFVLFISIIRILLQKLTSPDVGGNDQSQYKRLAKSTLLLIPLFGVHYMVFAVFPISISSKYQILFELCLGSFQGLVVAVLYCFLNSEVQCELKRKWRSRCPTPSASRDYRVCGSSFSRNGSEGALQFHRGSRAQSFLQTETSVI
Protocol: FIG. 5A-B. Results of BRET-based VIPR2 activation assays in cells expressing both the VIPR2 receptor and CAMYEL (see FIG. 1A for schematic). a) Inhibitory dose-response curves on treatment of CHO cells with increasing concentrations of a batch of antagonists against a background of VIP activation (VIP=5 nM).
In such a system, a detector cell is used which expresses both the VIPR2 receptor and “CAMYEL,” a YFP-Epac-RLuc8 BRET sensor construct. This construct includes Epac1, a guanine nucleotide exchange factor activated by direct binding of cAMP, fused with an enhanced YFP and Renilla luciferase 8 (Rluc8) allowing BRET upon cAMP-induced conformational changes (Jiang et al., 2007, J Biol Chem. 282:10576-10584). In response to elevated cAMP levels, there is a conformational change in Epac and therefore a change in the proximity of the fused chromophores, Rluc8 and YFP, resulting in measurable energy transfer. Coexpression of this BRET construct with VIPR2. optionally tagged at the N-terminus with a signal peptide and FLAG epitope (SF-VIPR2), for example in HEK293 cells, allows for detection of a VIPR2-specific response to cAMP. BRET readout may be calculated by quantifying the ratio of the light emitted by the acceptor, YFP (λ=525 nm), over the emission from the donor, RLuc8 (λ=485 nm). The proximity of the donor and acceptor, and therefore the BRET ratio, decreases in the presence of cAMP. In non-limiting specific embodiments, a stable cell line may be generated for this assay using the Flp-In T-Rex system in HEK293 cells. This system allows site-specific single copy integration of the gene of interest and control of expression levels using the Tet-repressor site making receptor expression tetracycline-inducible. For example, a CAMYEL and VIPR2 expressing line may be induced with 0.01 μg/ml tetracycline, then, 24 hours later cells may be collected and distributed into 96-well plates. After treatment with candidate inhibitor compound, for example at 5, 1 and 0.5 μM concentrations, cells may be incubated with the light emitting luciferin, coelenterazine H, for 5 min and incubated for 5 min with VIP at increasing concentrations, for example ranging from 100 pM to 10 μM. The fluorescence and luminescence may then be quantified, for example using a PHERAstar (BMG) plate reader. […] Alternatively, analogous experiments may be performed using human cells harvested from a patient having a VIPR2 copy number variation, for example (but not by way of limitation) pluripotent stem cells prepared from such a patient and then transfected with a CAMYEL construct.
A series of compounds were prepared using a synthetic method analogous to that set forth in Scheme 1, above, and then tested for their ability to inhibit VIP-induced cAMP elevation and β-arrestin recruitment, as described herein (Discoverx Corporation, Fremont, Calif., US). Compound activities were also tested in a BRET-based assay, as described herein. The results are shown below in Tables 1-4, above.
Numerous cellular assays were developed that were able to detect VIP responses absent of interference from non-specific vasopressin receptors using this CHO based system. VIPR2 is a Gs coupled receptor. Activation of VIPR2 by VIP leads to both an elevation in cAMP signaling and the recruitment of β-arrestin. A variety of combinations can be transiently transfect into these CHO cells for the assessment of cellular responses to VIP. For the BRET readout CHO cell lines expressing an YFP-Epac-RLuc8 (CAMYEL) BRET sensor were used to detect changes in cAMP. This construct includes Epac1, a guanine nucleotide exchange factor activated by direct binding of cAMP, fused to an enhanced YFP and RLuc8 allowing a change in BRET upon cAMP-induced conformational changes. The key for medium to high throughput screening assays is the use of stable cell lines allowing the continuous assaying of multiple compounds with the ability to generate large numbers of cells for rapid use. […]

hVIPR1 = target: T2, hVIPR1 (Homo sapiens, UniProt P32241); experiment: CAMYEL BRET cAMP assay in transient cell lines expressing hVIPR1; type: cell-based; conditions: transient cell lines expressing hVIPR1 and CAMYEL (FIG. 7)
T2 construct: expressed in transfected cells; host or cells: transient transfection with CAMYEL
T2 sequence (P32241 31-457): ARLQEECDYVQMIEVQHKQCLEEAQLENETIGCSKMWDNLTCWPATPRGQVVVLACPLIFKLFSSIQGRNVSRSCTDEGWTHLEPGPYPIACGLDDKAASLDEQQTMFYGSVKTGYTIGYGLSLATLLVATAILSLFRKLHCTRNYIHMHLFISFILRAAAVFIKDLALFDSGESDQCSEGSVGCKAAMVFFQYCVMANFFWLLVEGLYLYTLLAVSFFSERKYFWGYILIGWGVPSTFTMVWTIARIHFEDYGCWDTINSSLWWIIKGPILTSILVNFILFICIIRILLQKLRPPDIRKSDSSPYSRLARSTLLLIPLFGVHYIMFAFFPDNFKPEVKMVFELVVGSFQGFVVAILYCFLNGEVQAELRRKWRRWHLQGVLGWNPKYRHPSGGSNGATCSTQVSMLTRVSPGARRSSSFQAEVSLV
Text: These assays are now being used for reliable and rapid quantification of VIPR2 responses to various antagonists under development for this receptor. This assay can also be used to evaluate agonists to VIPR2 and allosteric compounds, in addition to addresing the functional selectivity of different compounds, as it is possible to address multiple pathways effected by modulation of VIPR2 using this second messenger detection systems (cAMP and β-arrestin). This cellular assay for the detection of […] is applicable to multiple members of the […]. To this end lines were also developed expressing CAMYEL together with VIPR1 and PACAP1R (both the human and mouse forms) using transient transfection. This allows for the confirmation of specificity of novel antagonists to the VIPR2 receptor in addition to providing the ability to assay VIPR1 and PACAPR1 antagonists, agonists and allosteric modulators. […] These assays allow assays of VIPR2 antagonist, agonists and other compounds acting at […] in a specific, selective, rapid and medium to high throughput manner.

specificity for VIPR2 over hVIPR1 (hVIPR1): VIPR2 specificity
SMILES: CC(=O)c1ccc(S(=O)(=O)NC[C@@H](O)C[C@@H](Cc2ccccc2)C(=O)N[C@H]2c3ccccc3C[C@H]2O)cc1 [K]
VIPR2 inhibition in BRET-based assay, in words (VIPR2): significantly improved activity as an antagonist at VIPR2
